Several values for one entry are separate records, joined by “and”; a condition that tells them apart may be missing. Equal values may be shown once. Entries after “also recorded” stand apart in the source; their conditions may differ. Read-outs that look alike come from different tables or passages of the source.
Key:
[1] = test system: neuroblastoma cell lines; test: In vitro growth inhibition (RT-CES), panel of neuroblastoma cell lines; assay type: cell-based, human; details: 333 nM, 72 hours; for Inhibition of growth, cell lines with ALK amplification or mutations: compared with normal copy number wild type ALK lines
Excerpt: A quantitative assay to evaluate growth inhibition in a multi-well was used in a parallel format to screen for cellular cytotoxicity. […] For FIG. 7, the biochemical consequences of ALK activation and downstream signaling pathways were studied in ALK-mutant lines.
(§1) To verify cell line integrity, all lines were routinely genotyped (AmpFLSTR® Identifiler® kit; Applied Biosystems) and mycoplasma tested.
It has been shown that mRNA knockdown of ALK in neuroblastoma cell lines with mutation or amplification is cytotoxic, and thus ALK inhibition might offer a tractable therapeutic target.

[2] = test system: NB1 (WT amplification); details: NB1, dose-dependent
Excerpt: as §1

[3] = test system: NB1643 (R1275Q); details: NB1643, dose-dependent
Excerpt: as §1

[4] = test system: SH-SY5Y (F1174L); details: did not occur until this dose
Excerpt: as §1

[5] = test system: SY5Y cells; test: Antibody-dependent cell-mediated cytotoxicity assay, SY5Y targets; assay type: cell-based, human; details: SY5Y pre-incubated 48 hours with crizotinib, then ALK antibody, mean
Method: The Cyto Tox 96 Non-Radioactive Cytotoxicity Assay (Promega) was used to assess antibody-dependent cell mediated cytotoxicity. […] Non-adherent peripheral blood lymphocytes were then replated in complete RPMI containing 1000 IU/ml rhIL-2 (Chiron) and incubated overnight. The following day, effector cells were collected and washed. Target NB1 or SY5Y cells that had been grown on T75 flasks until 70-80% confluency were also harvested and washed. […] Control wells were plated according to the manufacturer's specifications. After a 4-hour incubation at 37° C., cell viability was assessed by an enzymatic assay allowing for the quantification of lactate dehydrogenase which is released upon cell lysis. The % cytotoxicity was calculated as follows: [(Experimental−Effector Spontaneous−Target Spontaneous)/(Target Maximum−Target Spontaneous)]×100. […] Results shown are representative of three independent experiments, and quoted as mean±standard deviation.

[6] = test system: SY5Y cells; test: Propidium iodide staining, cell cycle analysis, SY5Y; assay type: cell-based, human; details: 1000 nM crizotinib, 10 μg/ml antibody, or both, mean
[7] = test system: SHSY5Y (F1174L) xenografts; details: 100 mg/kg/day oral gavage, 4 weeks; end point tumor volume ≥1.5 cm^3 or treatment related death
[8] = test system: NBSD (F1174L) xenografts; details: 100 mg/kg/day oral gavage, 4 weeks
[9] = test system: NBEBc1 (WT) xenografts; details: 100 mg/kg/day oral gavage, 4 weeks
[10] = test system: SKNAS (WT) xenografts; details: 100 mg/kg/day oral gavage, 4 weeks
[11] = test system: pSTAT3, pAKT, and pERK; test: In vitro phosphoprotein detection (immunoblot), downstream signaling; details: NB1 (wild type amplified)

C[C@@H](Oc1cc(-c2cnn(C3CCNCC3)c2)cnc1N)c1c(Cl)ccc(F)c1Cl [PF-02341066, crizotinib]
Inhibition of growth, cell lines with normal copy number WT ALK [1]: No cell lines with normal copy number WT ALK showed significant inhibition | Sensitivity of R1275Q cell lines compared with F1174L cell lines [1]: more sensitive | Inhibition of growth, cell lines with ALK amplification or mutations [1]: significantly superior inhibition of growth | Inhibition of growth, cell lines with ALK amplification or mutations ([1]; listed as PF2341066): sensitive; also recorded: significantly more sensitive | Sensitivity of R1275Q cell lines compared with F1174L cell lines ([1]; listed as PF2341066): R1275Q mutations were more sensitive than F1174L mutations; also recorded: significantly more sensitive | Dose at which inhibition of proliferation occurred [2]: 33 to 100 nM | Dose at which inhibition of proliferation occurred [3]: 33 to 100 nM and 33 nM | Dose at which inhibition of proliferation occurred [4]: 1000 nM | ADCC % cytotoxicity ([5]; effector:target 25:1): 33.7±2.5% | ADCC % cytotoxicity ([5]; effector:target 50:1): 55.7±9.3% | sub G0 fraction [6]: increased the sub G0 fraction, but to a smaller extent than seen with dual treatment | Prolongation of survival [7]: 7.7 days | Prolongation of survival [8]: 3.7 days | Prolongation of survival [9]: 5.1 days | Prolongation of survival / days to reach tumor volume of 1.5 cm^3 [10]: non-significant difference in days to reach a tumor volume of 1.5 cm^3 | Prolongation of survival / days to reach tumor volume of 1.5 cm^3 ([10]; listed as PF-2341066): neither a delay in tumor growth (P=0.87) or prolongation of survival | Abrogation of phosphorylation of STAT3, AKT and ERK [11]: substantial abrogation

From patent publication US10722578B2, “Methods and compositions for treating neuroblastoma” (The Children's Hospital of Philadelphia, priority 2008, dated 2020)
